Measurements reported in patent publication US20060025390A1, “Treatment of hormone allergy and related symptoms and disorders” (priority 2004, published 2006).

Key:
[1] = test system: serum IgE anti-estrogen antibodies; test: ELISA binding of IgE estrogen antibodies to different hormones in solid phase; set-up: species or system human; conditions: for IgE binding (optical density): hormone in solid phase, 405 nm; for IgE % reaction: relative to estrogen = 100
Experimental: (§1) The ELISA inhibition method was used to determine specificity and cross-reactivity between different hormones and to ensure the degree of human IgG, IgM and IgE estrogen or progesterone binding to estrogen or progesterone in solid phase. […] 100 μl of sera from three different patients with high IgG, IgM or IgE antibodies against 17-α-hydroxyprogesterone was added to all wells. After shaking and incubation for 1 hr at room temperature, addition of enzyme labeled anti-human IgG, IgM or IgE, repeat of incubation, washing, and addition of substrate, color development was measured at 405 nm. Results were calculated as percentage of anti-17-α-hydroxyprogesterone binding to 17-α-hydroxyprogesterone and other hormones. Also, anti-estrogen binding to estrogen and other hormones in solid phase by progesterone in liquid phase was performed and calculated in a similar manner.
(§2) Human sera containing 17-α-hydroxyprogesterone IgG-, IgM- and IgE-binding antibodies were reacted against progesterone, estrogen, hydrocortisone and cholesterol. In comparison to 100% binding of anti-17-α-hydroxyprogesterone-binding to 17-α-hydroxyprogesterone, the IgG anti-17-α-hydroxyprogesterone-binding to progesterone, estrogen, hydrocortisone and cholesterol was 69-77%, 25-30%, 39-53%, and less than 10% respectively (Table 4). The % binding of serum IgM and IgE anti-17-α-hydroxyprogesterone to 17-1-hydroxyprogesterone, progesterone, estrogen, hydrocortisone and cholesterol was similar to the binding of IgG. This binding of anti-17-α-hydroxyprogesterone to progesterone was the highest, followed by hydrocortisone, then estrogen, to almost no binding with cholesterol. Similar to this, human sera with IgG, IgM and IgE binding antibodies against estrogen were reacted with progesterone, 17-α-hydroxyprogesterone, hydrocortisone and cholesterol, in the presence of estrogen.

[2] = test system: serum IgE anti-17-α-hydroxyprogesterone antibodies; test: ELISA binding of IgE 17-α-hydroxyprogesterone antibodies to different hormones in solid phase; set-up: species or system human; conditions: for IgE binding (optical density): hormone in solid phase, 405 nm; for IgE % reaction: relative to 17-α-hydroxyprogesterone = 100
Experimental: as §1, §2

[3] = test system: serum IgM anti-17-α-hydroxyprogesterone antibodies; test: ELISA binding of IgM 17-α-hydroxyprogesterone antibodies to different hormones in solid phase; set-up: species or system human; conditions: for IgM binding (optical density): hormone in solid phase, 405 nm; for IgM % reaction: relative to 17-α-hydroxyprogesterone = 100
Experimental: as §1, §2

[4] = test system: patients experiencing hormone allergy symptoms; test: Clinical responses of hormone allergy symptoms to intradermal dilute progesterone (or estrogen); type: in vivo, human; conditions: 0.4 mg intradermally
Source text: Patients experiencing several hormone allergy symptoms experienced relief when administered dilute doses of progesterone either sublingually or intradermally.
The symptoms measured were irritation or pain in the neck, nose, eyes, throat, ear, skin, back, hips, upper extremities and lower extremities, headache, and shortness of breath. […]
Patients were designated as responding patients in Table 1 if they experienced any relief of the indicated symptom. Patients were also asked to estimate the amount of improvement in the symptom, an average of which is
In Table 2 the probability that positive results (i.e. patients responding to treatment) were due to random effects was calculated using standard statistical analysis of patient tests. It was assumed that if the treatment has no effect, there is a 50% chance that a patient will indicate a positive response and a 50% chance that a patient will indicate a negative response. From this assumption, coupled with the actual data, one may calculate the probability that positive responses are due to an actual effect of the treatment and not simply random effects. In general, results with a less than 1% chance of being random are considered highly significant. Results with a less than 5% chance of being random are normally conclusively labeled as nonrandom. Thus, the results observed for most of the symptoms in Table 2 are highly significant, with only the results for ear irritation and pain falling merely in the nonrandom category.
Hormone samples may be prepared in any way suitable for the intended administration route. For administration through intradermal injection, samples may be prepared as they were in the studies of Examples 2 and 3. Specifically, the progesterone was formulated from commercially available injectable progesterone. Each ml of the final formulation contained […] of progesterone and 10% benzyl alcohol as a preservative in sesame oil. 0.1 ml was administered per patient intradermally. Estrogen samples were similarly prepared.

[5] = test system: serum IgG anti-estrogen antibodies; test: ELISA binding of IgG estrogen antibodies to different hormones in solid phase; set-up: species or system human; conditions: for IgG binding (optical density): hormone in solid phase, 405 nm; for IgG % reaction: relative to estrogen = 100
Experimental: as §1, §2

[6] = test system: serum IgG anti-estrogen antibodies; test: Competition ELISA: absorption of serum IgG anti-estrogen with specific and non-specific antigens; type: binding, human; conditions: for IgG level after absorption: absorption with 250 μg/mL, optical density 405 nm
Experimental: (§3) For this, microtiter plates were coated with hormones and blocked by the addition of 2% BSA in PBST. 100 μl of serum diluent buffer was added to all wells. […] After 60 minutes incubation 100 μl serum anti-estrogen or anti-progesterone was added to all wells. […] Results were calculated as percentage of inhibition in antigen-antibody reaction.
(§4) To examine whether antibodies to estrogen or progesterone are specific or cross-reactive, we performed competition ELISA by adding specific and non-specific antigens in liquid phase and examined prevention of serum antibody binding to the antigen in solid phase. […] For IgE anti-estrogen, this inhibition by estrogen-BSA was between 54-62%, and with progesterone-BSA, from 37-43%. […] This cross-reaction between estrogen and progesterone antibodies may be due to structural similarities between these two hormones.

[7] = test system: serum IgM anti-estrogen antibodies; test: ELISA binding of IgM estrogen antibodies to different hormones in solid phase; set-up: species or system human; conditions: for IgM binding (optical density): hormone in solid phase, 405 nm; for IgM % reaction: relative to estrogen = 100
Experimental: as §1, §2

[8] = test system: serum IgG anti-17-α-hydroxyprogesterone antibodies; test: ELISA binding of IgG 17-α-hydroxyprogesterone antibodies to different hormones in solid phase; set-up: species or system human; conditions: for IgG binding (optical density): hormone in solid phase, 405 nm; for IgG % reaction: relative to 17-α-hydroxyprogesterone = 100
Experimental: as §1, §2

[9] = test system: serum IgE anti-estrogen antibodies; test: Competition ELISA: absorption of serum IgE anti-estrogen with specific and non-specific antigens; type: binding, human; conditions: for IgE level after absorption: absorption with 250 μg/mL, optical density 405 nm
Experimental: as §3, §4

[10] = relative to estrogen, over three sera
[11] = antigen in liquid phase, over the three sera

**Q.** estrogen was tested. Which “IgE anti-estrogen binding” value [1, 10] did it give?
**A.** The value was 100%.

**Q.** What about the “IgE binding (optical density)” value ([1]; sample 1) of the same substance?
**A.** The value was 0.8.

**Q.** What about the IgE % reaction ([1]; sample 1) of the same substance?
**A.** The IgE % reaction was −100%.

**Q.** What about the “IgE binding (optical density)” value ([1]; sample 2) of the same substance?
**A.** Its value is 1.5.

**Q.** What about the IgE % reaction ([1]; sample 2) of the same substance?
**A.** The IgE % reaction was −100%.

**Q.** And the “IgE binding (optical density)” value ([1]; sample 3)?
**A.** The value was 1.6.

**Q.** And the IgE % reaction ([1]; sample 3)?
**A.** Its IgE % reaction is −100%.

**Q.** What about the “IgE binding (optical density)” value ([2]; sample 1) of the same substance?
**A.** The value was 0.42.

**Q.** And the IgE % reaction ([2]; sample 1)?
**A.** The IgE % reaction was −29%.

**Q.** What about the “IgE binding (optical density)” value ([2]; sample 2) of the same substance?
**A.** Its value is 0.75.

**Q.** What about the IgE % reaction ([2]; sample 2) of the same substance?
**A.** The IgE % reaction was −31%.

**Q.** What about the “IgE binding (optical density)” value ([2]; sample 3) of the same substance?
**A.** Its value is 0.37.

**Q.** And the IgE % reaction ([2]; sample 3)?
**A.** The IgE % reaction was −25%.

**Q.** What about the “IgM binding (optical density)” value ([3]; sample 1) of the same substance?
**A.** Its value is 0.4.

**Q.** And the IgM % reaction ([3]; sample 1)?
**A.** Its IgM % reaction is −31%.

**Q.** And the “IgM binding (optical density)” value ([3]; sample 2)?
**A.** Its value is 0.41.

**Q.** What about the IgM % reaction ([3]; sample 2) of the same substance?
**A.** The IgM % reaction was −25%.

**Q.** What about the “IgM binding (optical density)” value ([3]; sample 3) of the same substance?
**A.** Its value is 0.29.

**Q.** What about the IgM % reaction ([3]; sample 3) of the same substance?
**A.** Its IgM % reaction is −32%.

**Q.** And the “symptom relief in patients not relieved by progesterone treatment” value [4]?
**A.** Its value is “experience relief”.

**Q.** And the “IgG anti-estrogen binding” value [5, 10]?
**A.** The value was 100%.

**Q.** What about the “IgG binding (optical density)” value ([5]; sample 1) of the same substance?
**A.** The value was 1.2.

**Q.** What about the IgG % reaction ([5]; sample 1) of the same substance?
**A.** Its IgG % reaction is −100%.

**Q.** And the “IgG binding (optical density)” value ([5]; sample 2)?
**A.** Its value is 1.8.

**Q.** What about the IgG % reaction ([5]; sample 2) of the same substance?
**A.** The IgG % reaction was −100%.

**Q.** And the “IgG binding (optical density)” value ([5]; sample 3)?
**A.** The value was 0.92.

**Q.** And the IgG % reaction ([5]; sample 3)?
**A.** The IgG % reaction was −100%.

**Q.** And the “inhibition of anti-estrogen binding to estrogen (IgG)” value [6, 11]?
**A.** Its value is “did not significantly absorb”.

**Q.** What about the “IgG level after absorption” value ([6]; serum sample 1, before absorption 1.83) of the same substance?
**A.** Its value is 1.53.

**Q.** And the “IgG level after absorption” value ([6]; serum sample 2, before absorption 1.25)?
**A.** The value was 0.95.

**Q.** And the “IgG level after absorption” value ([6]; serum sample 3, before absorption 0.76)?
**A.** Its value is 0.54.

**Q.** And the “IgM anti-estrogen binding” value [7, 10]?
**A.** The value was 100%.

**Q.** What about the “IgM binding (optical density)” value ([7]; sample 1) of the same substance?
**A.** Its value is 0.9.

**Q.** What about the IgM % reaction ([7]; sample 1) of the same substance?
**A.** The IgM % reaction was −100%.

**Q.** And the “IgM binding (optical density)” value ([7]; sample 2)?
**A.** Its value is 2.1.

**Q.** And the IgM % reaction ([7]; sample 2)?
**A.** Its IgM % reaction is −100%.

**Q.** What about the “IgM binding (optical density)” value ([7]; sample 3) of the same substance?
**A.** Its value is 1.3.

**Q.** And the IgM % reaction ([7]; sample 3)?
**A.** Its IgM % reaction is −100%.

**Q.** And the “IgG anti-17-α-hydroxyprogesterone binding” value ([8]; in comparison to 100% binding to 17-α-hydroxyprogesterone, over three sera)?
**A.** The value was 25-30%.

**Q.** What about the “IgG binding (optical density)” value ([8]; sample 1) of the same substance?
**A.** The value was 0.48.

**Q.** And the IgG % reaction ([8]; sample 1)?
**A.** The IgG % reaction was −30%.

**Q.** What about the “IgG binding (optical density)” value ([8]; sample 2) of the same substance?
**A.** The value was 0.24.

**Q.** What about the IgG % reaction ([8]; sample 2) of the same substance?
**A.** Its IgG % reaction is −25%.

**Q.** And the “IgG binding (optical density)” value ([8]; sample 3)?
**A.** Its value is 0.18.

**Q.** What about the “inhibition of IgE anti-estrogen binding” value [9, 11] of the same substance?
**A.** The value was “did not significantly absorb”.

**Q.** And the “IgE level after absorption” value ([9]; serum sample 1, before absorption 2.15)?
**A.** Its value is 1.70.

**Q.** What about the “IgE level after absorption” value ([9]; serum sample 2, before absorption 1.66) of the same substance?
**A.** The value was 1.30.

**Q.** And the “IgE level after absorption” value ([9]; serum sample 3, before absorption 1.34)?
**A.** Its value is 0.86.
